Test results taken from patent publication US20230029372A1, “THERAPEUTIC COMPOSITIONS AND METHODS FOR PREVENTION AND TREATMENT OF DIASTOLIC DYSFUNCTION” (AMBETEX PTY LTD, priority 2019, published 2023).
Entries after “also recorded” stand apart in the source; their conditions may differ.

Tests used:
Type in all cases: in vivo
Male C57BL6 mice [1] = assay: Aβ42 administration study: plasma Aβ42, body measures, GTT with glucose tracers, cardiac TAG, gene expression
Method: Male C57BL6 mice were obtained from the Animal Resource Centre (Perth, Wash.) at 4 weeks of age and housed with 4 mice per cage on a 12 hr light/dark cycle at a temperature of 22° C. and a constant humidity with a normal rodent diet. At 12 weeks of age, mice were grouped according to body mass and composition, determined by EchoMRI. […] An i.p. glucose tolerance test (GTT) was performed on the final treatment day following an overnight fast. Mice were administered 2 g/kg lean mass of glucose including radioactive glucose tracers, prepared as follows. 100 μl of 1 μCi/μl glucose analogue, [^3H]-2-deoxyglucose (2-DOG), and 500 μl of 200 μCi/mL U-^14C glucose were evaporated to dryness before redissolving the radioactive tracers in 1 mL of 50% glucose. This produced a 50% glucose solution containing 100 μCi/mL [^3H]-2-DOG and 100 μCi/mL U-^14C glucose. The tail tip of each mouse was cut off and the blood glucose concentration of a blood sample was measured using an AccuCheck II glucometer (Roche). The GTT was initiated via intraperitoneal injection of the radiolabelled glucose solution (2 g/kg body weight, 10 uCi/animal) into the overnight-fasted mice. Further blood samples were taken at 15, 30, 45, 60 and 90 minutes after the injection for the measurement of blood glucose. Blood samples (30 μl) were also taken from the tail tip at each time point and diluted in 100 μl of saline. These samples were then centrifuged and the supernatant collected. 50 μl of the supernatant was diluted in 500 μl of distilled water and then suspended in 4 mL of Ultima Gold XR scintillation fluid (Packard Bioscience). Blood radioactivity was determined at each time point by performing liquid scintillation counting on each solution using the Beckman scintillation counter (LS6000 SC). At the conclusion of the GTT, mice were killed via cervical dislocation. Blood was obtained immediately following by cardiac puncture and the heart, and other tissues were immediately removed. Hearts were washed in ice cold PBS and weighed prior to being snap frozen in liquid nitrogen. The heart (30 mg), epididymal fat pad (30 mg and quadriceps skeletal muscle (30 mg) were homogenised in 1.5 ml of distilled water. The homogenate was centrifuged at 3000 rpm for 10 min at 4° C. 400 μl of the supernatant was diluted into 1.6 mL of distilled water and then suspended in 14 mL of Ultima Gold XR scintillation fluid (Packard Bioscience). The radioactivity of each sample (from both [^3H]-2-DOG6P and [^3H]-2-DOG) was determined by liquid scintillation counting using the Beckman scintillation counter (LS6000 SC). The ^3H radioactivity was used to measure glucose uptake into each tissue.
To determine the incorporation of U-^14C glucose into triglyceride and the total triglyceride content in the heart, an extraction of triglyceride was carried out using a chloroform/methanol mixture. Samples of heart (30 mg) were hand-homogenised in 2 mL of chloroform/methanol (2:1) and the homogeniser rinsed in a further 2 mL of chloroform/methanol (2:1), and the washings being added to the original extract in 10 mL tubes. The tubes were tightly capped and mixed on a rotator overnight to maximise extraction of the triglycerides. 2 ml of 0.6% saline was then added, to facilitate the separation of the organic and aqueous phases, after which the tubes were mixed thoroughly and then centrifuged at 2000 rpm for 10 minutes. The lower chloroform phase (containing triglycerides) was collected and evaporated to dryness under nitrogen at 45° C. The dried extract was then re-dissolved in 250 μl of 100% ethanol, to redissolve the lipid and enable aliquots to dispensed for assay. The amount of U-^14C glucose clearance into the lipid fraction was measured by suspending 100 μl of the triglyceride solution in 5 mL of Ultima Gold XR scintillation fluid (Packard Bioscience), followed by scintillation counting using the Beckman scintillation counter (LS6000 SC).

Male C57BL6 mice [2] = assay: Aβ42 administration study: cardiac function by echocardiography
Method: (§1) After 4 weeks of peptide administration, cardiac function was assessed by echocardiography as follows. Mice were anaesthetised with inhalation of 1.5% isoflurane anaesthesia and echocardiography was performed using the Phillips HD15 diagnostic ultrasound system with a 15 MHz linear-array transducer by an experienced veterinarian. The velocity of blood flow through the mitral valve was analysed using Doppler mode imaging. […] Doppler imaging was also utilised to measure the velocity of blood flow through the aortic valve. The measurements were then used to calculate the ejection time, peak aortic flow and heart rate. M-mode imaging of the left ventricle was used to measure the thickness of the inter-ventricular septum (IVS), left ventricular internal diameter (LVID) and left ventricular posterior wall (LVPW) in both diastole (d) and end-systole (s) as well as systolic measures such as ejection fraction and fractional shortening. An estimation of LV mass was calculated from the m-mode imaging by using the formula (1.05 [LVIDd+LVPWd+IVSd]^3−[LVIDd]^3) by Troy et al. (1972). Mice were humanely killed by cervical dislocation 1 week later. Blood was obtained immediately following by cardiac puncture and the heart, and other tissues were immediately removed. Hearts were washed in ice cold PBS and weighed prior to being snap frozen in liquid nitrogen.
Hearts were also collected for morphological analysis (FIG. 2).

Male C57BL6 mice [3] = assay: Aβ40 administration study: plasma Aβ40 and echocardiography; conditions: 1 μg/day i.p.
Method: as §1, with “Aβ40 administration study: Lyophilised recombinant Aβ40 (Millipore) and scrambled control peptide (ScrAβ40; Millipore) were resuspended in 1% NH4OH and aliquoted at 200 ng/ml in H2O and stored at −80° C. for no longer than 4 weeks. Male C57BL6 mice were obtained from the Animal Resource Centre (Perth, Wash.) at 4 weeks of age and housed with 4 mice per cage on a 12 hr light/dark cycle at a temperature of 22° C. and a constant humidity with a normal rodent diet. At 12 weeks of age, mice were grouped according to body mass and composition, determined by EchoMRI. Mice were then administered 1 μg of recombinant Aβ40 or ScrAβ40 (n=12/group per cohort) by i.p. injection once/day for 5 wks. After” for “After”, “(1.05[LVIDd+LVPWd+IVSd]^3−[LVIDd]^3)” for “(1.05 [LVIDd+LVPWd+IVSd]^3−[LVIDd]^3)”, “nitrogen. Plasma Aβ40 was measured using a high sensitivity ELISA kit (Wako Diagnostics) and plasma that was diluted 1:10 with assay buffer.” for “nitrogen.”

obese mice = assay: PF06648671-High Fat Diet (HFD) treatment study: echocardiography
Method: (§2) PF06648671-High Fat Diet (HFD) treatment study: At 12 weeks of age, mice (n=30) were placed on a HFD with 43% of calories from fat (23.5% by weight; SF04-001 High Fat Rodent Diet Based on D12451, Specialty Feeds, Glen Forrest, Wash.). After 13 weeks of the diet period, echocardiography was performed on all mice to obtain pre-drug treatment measures of cardiac function. Mice were allocated to treatment groups so that measures of cardiac function and morphology were matched as best as possible. PF06648671 (Medkoo Biosciences) was resuspended in 100% DMSO before being diluted in a hydroxypropyl cellulose solution to give a final solution containing lmg/mL PF06648671 in 10% hydroxypropyl cellulose and 5% DMSO. A vehicle solution containing 10% hydroxypropyl cellulose and 5% DMSO was also made. Aliquots of both drug and vehicle were stored at −80° C. until required. The HFD/PF06648671 group was administered 4 mg/kg of PF06648671 per day by oral gavage, while the HFD/control group received an equivalent volume of vehicle. Echocardiography was then performed following 4 weeks of the treatment period to obtain post-drug treatment measures of cardiac function. Following 5 weeks of the drug administration, mice were humanely killed via cervical dislocation and blood was immediately obtained via cardiac puncture and stored in a heparinised tube. The heart, epididymal fat pad, mesenteric fat pad, liver, quadricep, hind limb and brain were then immediately dissected. The heart was blotted prior to being weighed and all tissues were snap frozen in liquid nitrogen and stored at −80° C. Plasma Aβ species were measured using high sensitivity ELISA kits (Wako Diagnostics) and plasma that was diluted 1:10 with assay buffer.

plasma Aβ species = assay: PF06648671-High Fat Diet (HFD) treatment study: plasma Aβ species by ELISA; conditions: obese mice
Method: as §2, with “Following 5 weeks of the drug administration, mice were humanely killed via cervical dislocation and blood was immediately obtained via cardiac puncture and stored in a heparinised tube. The heart, epididymal fat pad, mesenteric fat pad, liver, quadricep, hind limb and brain were then immediately dissected. The heart was blotted prior to being weighed and all tissues were snap frozen in liquid nitrogen and stored at −80° C.” left out

[4] = GTT after five weeks of peptide, vs ScrAβ42

## Aβ42: Lyophilised recombinant Aβ42 (Millipore)
Male C57BL6 mice [1]; 1 μg/day i.p., five weeks, compared with ScrAβ42 (FIG. 1A)
  increase in plasma Aβ42: approximately 3 fold
Male C57BL6 mice [1]; [4]
  plasma insulin throughout the GTT: no difference
  whole body glucose tolerance: no difference
Male C57BL6 mice [1]; heart, after five weeks of peptide (FIG. 1C)
  glucose incorporation into TAG (14C-glucose labelling): greater
Male C57BL6 mice [1]; heart, after five weeks of peptide (FIG. 1D)
  total TAG: increased
Male C57BL6 mice [1]; heart, after five weeks of peptide (FIG. 1E)
  cardiac gene expression (inflammation, endoplasmic reticulum stress): gene expression changes indicative of cardiac stress responses
Male C57BL6 mice [2]; Aβ42 vs ScrAβ42 (FIG. 2B)
  internal dimensions of the left ventricle (LVIDd): no effect
Male C57BL6 mice [2]; Aβ42 vs ScrAβ42 (FIG. 2D)
  deceleration time: increased
Male C57BL6 mice [2]; Aβ42 vs ScrAβ42 (FIG. 2E)
  E normalised by isovolumetric relaxation time (IVRT): no significant difference
Male C57BL6 mice [2]; Aβ42 vs ScrAβ42 (FIG. 2F)
  fractional shortening: reduced
Male C57BL6 mice [2]; Aβ42 vs ScrAβ42 (FIG. 2G)
  ejection fraction: reduced
Male C57BL6 mice [2]; Aβ42 vs ScrAβ42, five weeks (FIG. 2A)
  gross heart weight: no effect

## Aβ40: Lyophilised recombinant Aβ40 (Millipore)
Male C57BL6 mice [3]; 5 weeks (FIG. 6B)
  E:A ratio: did not have any effect
Male C57BL6 mice [3]; 5 weeks (FIG. 6C)
  DT: did not have any effect
Male C57BL6 mice [3]; 5 weeks (FIG. 6E)
  ejection fraction: nor any effect
Male C57BL6 mice [3]; 5 weeks (FIG. 6F)
  IVSd: no effect
Male C57BL6 mice [3]; 5 weeks (FIG. 6G)
  LVIDd: no effect
Male C57BL6 mice [3]; 5 weeks (FIG. 6H)
  LV mass: no effect
Male C57BL6 mice [3]; 5 weeks, vs ScrAβ40 (FIG. 6A)
  plasma Aβ40: significantly increased

## Cc1cn(-c2ccc3n(c2=O)CCN([C@@H](C)[C@@H]2CC[C@H](c4cc(F)c(Cl)cc4C(F)(F)F)O2)C3=O)cn1 [PF06648671]
Obese mice; obese mice (FIG. 7D)
  relative change in the E:A ratio, Vehicle vs PF06648671 groups: significantly different
Obese mice; obese mice, 4 mg/kg per day oral gavage, 4 weeks (FIG. 7C)
  E:A ratio Pre-treatment to Post-treatment: did not change; also recorded: prevented deterioration
Obese mice; obese mice, 4 mg/kg per day oral gavage, 4 weeks (FIG. 7D)
  E:A ratio relative to Pre-treatment values: 114%
Plasma Aβ species; 4 mg/kg per day oral gavage (FIG. 7A)
  plasma Aβ40: decreased
Plasma Aβ species; 4 mg/kg per day oral gavage (FIG. 7B), 4 mg/kg/day
  plasma Aβ42: decreased; also recorded: reduced
